Values after ≈ are worked out from the molar mass of the structure shown. Values joined by “and” are separate entries in the source; they are usually repeats but may differ in a detail not shown here. Equal entries are not always repeated. “Also recorded” adds a separate entry of the source. Where two headings read alike, the source gives them in different places. One block for each compound: values may come before it.
What was measured:
[1] = test system: Trypanosoma cruzi cell-derived trypomastigotes; experiment: Activity on cell-derived trypomastigotes at 4 °C, 24 h, MTT assay; type: cell-based, T. cruzi clone Dm28c; details: for Selectivity index (SI) - Vero cells: Table II, CC50 Vero cells / IC50 cell-derived trypomastigotes (4 °C); for IC50: Trypanosoma cruzi
[2] = test system: red blood cells (RBCs); experiment: Cytotoxicity on red blood cells at 4 °C; type: cell-based, human; details: CC50 RBCs (4 °C) / IC50 cell-derived trypomastigotes (4 °C)
Description: (§1) To analyse cytotoxicity on red blood cells (RBCs) at 4 °C, human erythrocytes were obtained from 10-mL blood samples (O+), from a healthy volunteer donor, as previously described ([Izumi et al. 2012]). After collection, blood was […] and then washed with a sterile ‘saline-glucose’ solution (0.85% NaCl/5% glucose). The final pellet was diluted in saline-glucose and centrifuged for 5 min at 1400 g. The supernatant was discarded and the pellet of RBCs was diluted in saline-glucose, for a final concentration of 6%. […] Negative control samples represented untreated RBCs diluted in saline-glucose. After treatment, plates were centrifuged at 1027 g for 2 min, and 100 µL of supernatant from each well were transferred to a new plate and analysed (at 550 nm) in an EL800 microplate reader (Biotek, Winooski, VT, USA). Cytotoxicity (CC50) values were calculated using Excel, and selectivity index (SI) values were calculated as the ratio between the CC50/24 h (for Vero cells or RBCs) and IC50/24 h values.

[3] = test system: Vero cells; experiment: Cytotoxicity on Vero cells, MTT assay; type: cell-based; details: 1 µg/mL, 24 h; not shown
[4] = test system: Trypanosoma cruzi cell-derived trypomastigotes; experiment: PaEO activity on cell-derived trypomastigotes at 28 °C, 24 h, cell counting; type: cell-based, T. cruzi clone Dm28c
Description: To obtain cell-derived trypomastigotes, Vero cells were incubated with cell-derived trypomastigotes (1:10 ratio of cells to parasites) in 75 cm^2 culture flasks containing 8 mL DMEM. After 4 h of interaction, non-internalised parasites were removed by rinsing with phosphate-buffered saline (PBS), new medium was added, and then changed to fresh medium every 24 h. After 96 h of infection, trypomastigotes released into the supernatant were collected by centrifugation at 3000 g for 10 min.
PaEO activity assays with cell-derived trypomastigotes were performed at 28 °C and 4 °C. […]

[5] = Cytotoxicity on Vero cells, MTT assay; type: cell-based; details: African green monkey, Vero cells (ATCC CCL-81), Vero cells
Description: MTT assay - After drug treatments, MTT solution (10 mg/mL in PBS) was added to each well for a final concentration of 2.5 mg/mL (or 1 mg/mL for trypomastigotes). Plates were incubated for 3 h at 28 °C in the dark, centrifuged for 10 min at 475 g and the supernatant was removed (by quick plate reversal). Then, 20 µL SDS was added to each well, followed by incubation for 1 h at 28 °C, after which 80 µL DMSO was added to each well and incubated for a further 1 h at 28 °C. Finally, the residual material was removed with the aid of a toothpick, and sample absorbance (at 550 nm) was read in an EL800 microplate reader (Biotek, Winooski, VT, USA). Dose-response curves were produced using the CompuSyn software, which was also used to calculate IC50/24 values.
Cytotoxicity - Vero cells were seeded in 96-well plates (2 x 10^4 cells/well) with RPMI-1640 medium and cultivated for 24 h at 37 °C (5% CO2). […] Then, plates were subjected to the MTT assay as described above (see “MTT assay”), and MTT data were used to calculate 50% cytotoxicity (CC50/24 h) values. Plates were examined in an inverted microscope every 12 h, to evaluate monolayer integrity (confluence and adhesion).

[6] = test system: Trypanosoma cruzi metacyclic trypomastigotes; experiment: PaEO activity on metacyclic trypomastigotes at 28 °C, 24 h, cell counting; type: cell-based, T. cruzi clone Dm28c
Description: (§2) Parasites - In this work, we used the T. cruzi clone Dm28c. Epimastigote forms were kept at 28 °C in LIT medium supplemented with 10% inactivated FCS, with passages at every three days. For the experiments, parasites obtained from 72-h cultures were used.
To obtain metacyclic trypomastigotes, culture epimastigotes in late logarithmic growth phase (five days) were subjected to nutritional stress as described previously ([Contreras et al. 1985]). […]
Single drug activity assays on T. cruzi developmental forms - All experiments were performed in biological and technical triplicates. […] The absorbance of untreated cells in culture media containing 0.5% DMSO (control) was used as 100% cell viability, and the percentage of dead cells in each treatment was estimated by comparison with the untreated control.
For all assays, IC50/24 h values (based on cell counting, MTT data or infection index values) and dose-response curves were generated using the CompuSyn software (ComboSyn Inc., Paramus, NJ, USA), and statistical analysis was performed in Excel. For all assays, the fraction of affected cells (Fa) was calculated relative to the untreated control (treated/untreated ratio). […]

[7] = test system: Trypanosoma cruzi epimastigotes; experiment: PaEO activity on epimastigotes at 28 °C, 24 h, MTT assay; type: cell-based, T. cruzi clone Dm28c
Description: as §2
(§3) Single drug activity assays on T. cruzi developmental forms - All experiments were performed in biological and technical triplicates. Incubations were performed for 24 h in all bioassays. The absorbance of untreated cells in culture media containing 0.5% DMSO (control) was used as 100% cell viability, and the percentage of dead cells in each treatment was estimated by comparison with the untreated control.
(§4) For all assays, IC50/24 h values (based on cell counting, MTT data or infection index values) and dose-response curves were generated using the CompuSyn software (ComboSyn Inc., Paramus, NJ, USA), and statistical analysis was performed in Excel. For all assays, the fraction of affected cells (Fa) was calculated relative to the untreated control (treated/untreated ratio).
To test the activity of PaEO on epimastigote forms, these cells were seeded into 96-well plates (5 x 10^6 cells/well) in LIT medium, and treated for 24 h at 28 °C with PaEO at the final concentrations of 9, 18, 37, 75, 150 and 300 µg/mL. […] Cell viability was assessed by the MTT assay (see “MTT assay”). […]

[8] = test system: Trypanosoma cruzi intracellular amastigotes; experiment: PaEO activity against intracellular amastigotes in Vero cells, 37 °C, 24 h, infection index; type: cell-based; details: for Amastigotes per cell / Infected cells (%): Vero cells; for Infection index (II): II = % infected cells x amastigotes per cell
Description: Vero cells - Vero cells (ATCC CCL-81) were grown in RPMI-1640 medium with L-glutamine (Sigma Aldrich, St. Louis, MO, USA), supplemented with 5% fetal calf serum (FCS; Cultilab, Campinas, SP, Brazil), at 37 °C, and in a humidified 5% CO2 atmosphere. For seeding, cell monolayers were washed twice with PBS (pH 7.2), trypsinized and collected by centrifugation at 100 g for 2 min.
as §2, §3, §4
To test PaEO activity against intracellular amastigotes, Vero cells were seeded in 24-well plates (2 x 10^4 cells/well) in DMEM (Sigma-Aldrich), and allowed to adhere for 24 h. Then, cell-derived trypomastigotes were added to each well (1:10 ratio of cells to parasites), incubated for 3 h, and non-internalised parasites were removed by washing with PBS. Infected cultures were incubated for 24 h (at 37 °C, 5% CO2), and then the culture medium was replaced with RPMI-1640 containing PaEO or BZ at final concentrations between 1 and 100 µg/mL (total volume of 1 mL/well), and plates were incubated for 24 h, at 37 °C (5% CO2). Treated cells were fixed with methanol, stained with Giemsa, and the inhibitory effect on intracellular amastigotes was estimated by counting (a) the number of infected cells, and (b) the number of amastigotes per cell, in 100 cells/wells, from random light microscopy images.

[9] = test system: Chagas disease; details: cited from earlier work; for Treatment efficacy: ref Rassi et al. 2009
[10] = test system: T. cruzi blood trypomastigotes (Y strain); set-up: method as in Santoro et al. 2007b; details: ref Santoro et al. 2007b; cited from earlier work
[11] = Cytotoxicity on red blood cells at 4 °C; type: cell-based, human; details: red blood cells (erythrocytes); human RBCs, 4 °C
Description: as §1

[12] = Trypanosoma cruzi, 24 h, read-out: IC50/24 h
[13] = 37 °C, read-out: Vero cells CC50/24 h

Compound: CN(C)c1ccc(C(=C2C=CC(=[N+](C)C)C=C2)c2ccc(N(C)C)cc2)cc1 [Gentian Violet, gentian violet]
Selectivity index (SI) - Vero cells [1]: 2.9 | Selectivity index (SI) - RBCs [2]: > 2.8

Compound: C=CC(C)(O)CCC=C(C)CCC=C(C)C (mixture of isomers) [nerolidol]
Integrity of Vero cell monolayers [3]: did not affect the integrity; also recorded: remained intact | Trypanocidal activity (light microscopy and MTT) ([1]; 100 ng/mL to 1 µg/mL, 4 °C, 24 h, data not shown): no appreciable trypanocidal activity; also recorded: failed to affect significantly

Compound: O=C(Cn1ccnc1[N+](=O)[O-])NCc1ccccc1 [BZ, Benznidazole]
Selectivity index (SI) ([4]; CC50 on Vero cells / IC50, cell-derived trypomastigotes 28 °C): 63.4 | IC50 [4, 12]: 16.1 µg/mL (≈ 61.9 µM) | CC50 at 24 h [5, 13]: > 1000 µg/mL | Selectivity index (SI) ([6]; CC50 on Vero cells / IC50, metacyclic trypomastigotes 28 °C): 3,646.4 | IC50 [6, 12]: 0.3 µg/mL (≈ 1.15 µM) | Selectivity index (SI) ([7]; CC50 on Vero cells / IC50, epimastigotes 28 °C): 69.4 | IC50 [7, 12]: 45 µM and 14.7 µg/mL | II decrease ([8]; 10 µg/mL, 24 h): 81.3% | Amastigotes per cell ([8]; 10 µg/mL, 24 h): 2.5 | Infected cells (%) ([8]; 10 µg/mL, 24 h): 74.9% | Infection index (II) ([8]; 10 µg/mL, 24 h): 187.2 | II decrease ([8]; 50 µg/mL, 24 h): 99.9% | Amastigotes per cell ([8]; 50 µg/mL, 24 h): 0.9 | Infected cells (%) ([8]; 50 µg/mL, 24 h): 0.4% | Infection index (II) ([8]; 50 µg/mL, 24 h): 0.3 | Selectivity index (SI) ([8]; CC50 on Vero cells / IC50, amastigotes 37 °C): 1,276.2 | IC50 ([8]; Trypanosoma cruzi, Vero, 24 h, read-out: IC50/24 h): 0.8 µg/mL (≈ 3.07 µM) | Treatment efficacy ([9]; acute phase of the disease): approximately 80% | Treatment efficacy ([9]; chronic phase of the disease): ~20% | Treatment discontinuation due to side effects ([9]; ref Bern 2011): 7-13 % of cases

IC50 ([1]; cell-derived trypomastigotes, 4 °C, 24 h, read-out: IC50/24 h): 0.306 µg/mL (≈ 1.98 µM) | IC50 ([1]; cell-derived trypomastigotes, 4 °C, 24 h, read-out: T. cruzi IC50/24 h): 0.31 µg/mL (≈ 2.01 µM)
Compound: C=CC(C)(O)CCC=C(C)C (centres unmarked) [Linalool, linalool]
CC50 at 24 h [5, 13]: 0.87 µg/mL (≈ 5.64 µM) | CC50 at 24 h ([5]; b44 prints at 4 °C, read-out: CC50/24 h): 0.824 µg/mL (≈ 5.34 µM) | Selectivity index (SI) - Vero cells [1]: 2.7 | Selectivity index (SI) - Vero cells ([1]; listed as linalool): 2.69 | Times more efficient than gentian violet ([1]; cell-derived trypomastigotes, 4 °C): approximately 80,000 times | Times more effective than BZ at 28ºC ([1]; linalool at 4 °C vs BZ at 28 °C, cell-derived trypomastigotes): approximately 52 times | IC50/24 h [10]: 264 µg/mL (≈ 1710 µM) | CC50 at 24 h [11]: 7340 µg/mL (≈ 47600 µM) | Selectivity index (SI) - RBCs [2]: 23,990
